The text below walks through data of patent US20230077362A1 (CORTEVA AGRISCIENCE LLC, priority 2019, published 2023).

The test system of test [1] is Beet Armyworm (Spodoptera exigua) ("BAW"), second instar larvae. Description: Bioassay on beet armyworm (BAW), 128-well diet tray assay. It is filed as in vivo. Conditions: for pest or weed control at 50 µg/cm2: Spodoptera exigua; for BAW rating: Table ABC, species BAW, C = not tested, D = no activity noticed. The method, boiled down: (§1)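 Read-out: percent larval mortality per well, averaged over 8 wells. Incubation 25° C., 14:10 L:D photoperiod, 5–7 days, trays sealed with clear adhesive cover.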

The test system of test [2] is Cabbage Looper (Trichoplusia ni) ("CL"), second instar larvae. Description: Bioassay on cabbage looper (CL), 128-well diet tray assay. It is filed as in vivo. Conditions: for pest or weed control at 50 µg/cm2: Trichoplusia ni; for CL rating: Table ABC, species CL, C = not tested, D = no activity noticed. The method, boiled down: as §1
Setting [3] is: read-out: BAW (Biological Results, rating).
[4] abbreviates: read-out: CL (Biological Results, rating).

Where two headings read alike, the source gives them in different places.

Take `CCOCc1ccc(C)cc1N1C(=O)CS/C1=N\C(=O)Nc1ccc(-c2ncn(-c3ccc(OCC(F)(F)F)cc3)n2)cc1F` [Compound J766, (Z)-1-(3-(2-(Ethoxymethyl)-5-methylphenyl)-4-oxothiazolidin-2-ylidene)-3-(2-fluoro-4-(1-(4-(2,2,2-trifluoroethoxy)phenyl)-1H-1,2,4-triazol-3-yl)phenyl)urea]: the pest or weed control at 50 µg/cm2 in test [1] (read-out: BAW rating) and in test [2] (read-out: CL rating) was 50 to 100% throughout.

As to `COC(C)c1ccc(C)cc1N1C(=O)CS/C1=N\C(=O)Nc1ccc(-c2ncn(-c3ccc(C(F)F)cn3)n2)cc1F` (stereo not drawn) [Compound J341], the “BAW (Biological Results, rating)” value in test [1] (Beet Armyworm (Spodoptera exigua), C = Not Tested) was “A (50-100)”. Besides, in test [2] (Cabbage Looper (Trichoplusia ni), C = Not Tested), the “CL (Biological Results, rating)” value is recorded as “A (50-100)”.

Consider `Cc1ccc(COCC(F)(F)F)c(N2C(=O)CS/C2=N\C(=O)Nc2ccc(-c3ncn(-c4ccc(F)cc4)n3)cc2F)c1` [Compound J782, (Z)-1-(2-Fluoro-4-(1-(4-fluorophenyl)-1H-1,2,4-triazol-3-yl)phenyl)-3-(3-(5-methyl-2-((2,2,2-trifluoroethoxy)methyl)phenyl)-4-oxothiazolidin-2-ylidene)urea], for which the pest or weed control at 50 µg/cm2 in test [1] (read-out: BAW rating) and in test [2] (read-out: CL rating) was 50 to 100% each time.

For `Cc1ccc(C(C)C)c(N2C(=O)CS/C2=N\C(=O)Nc2ccc(-c3cn(-c4ccc(C(F)(F)F)cc4)cn3)cc2C)c1` [Compound J523, (Z)-1-(3-(2-Isopropyl-5-methylphenyl)-4-oxothiazolidin-2-ylidene)-3-(2-methyl-4-(1-(4-(trifluoromethyl)phenyl)-1H-imidazol-4-yl)phenyl)urea], the pest or weed control at 50 µg/cm2 in test [1] (read-out: BAW rating) and in test [2] (read-out: CL rating) was 50 to 100% throughout.

With `Cc1cc(COCC(F)(F)F)c(N2C(=O)CS/C2=N\C(=O)Nc2ccc(-n3cnc(-c4ccc(OC(F)(F)F)cc4)n3)cc2Cl)cc1C` [Compound J733, (Z)-1-(2-Chloro-4-(3-(4-(trifluoromethoxy)phenyl)-1H-1,2,4-triazol-1-yl)phenyl)-3-(3-(4,5-dimethyl-2-((2,2,2-trifluoroethoxy)methyl)phenyl)-4-oxothiazolidin-2-ylidene)urea], the pest or weed control at 50 µg/cm2 in test [1] (read-out: BAW rating) and in test [2] (read-out: CL rating) was 50 to 100% each time.

With `Cc1ccc(C(C)C)c(N2C(=O)CS/C2=N\C(=O)Nc2ccc(-c3ncn(-c4ccc(OC(F)(F)F)cc4)n3)cc2C(F)(F)F)c1` [Compound J114, (Z)-1-(3-(2-Isopropyl-5-methylphenyl)-4-oxothiazolidin-2-ylidene)-3-(4-(1-(4-(trifluoromethoxy)phenyl)-1H-1,2,4-triazol-3-yl)-2-(trifluoromethyl)phenyl)urea], the pest or weed control at 50 µg/cm2 in test [1] (setting [3]) and in test [2] (setting [4]) was 50 to 100% each time.

As for `COc1cc(-c2ncn(-c3ccc(OC(F)(F)C(F)(F)F)cc3)n2)ccc1NC(=O)/N=C1\SCC(=O)N1c1cc(C)ccc1C(C)C` [Compound J28, (Z)-1-(3-(2-Isopropyl-5-methylphenyl)-4-oxothiazolidin-2-ylidene)-3-(2-methoxy-4-(1-(4-(perfluoroethoxy)phenyl)-1H-1,2,4-triazol-3-yl)phenyl)urea], the pest or weed control at 50 µg/cm2 in test [1] (setting [3]) and in test [2] (setting [4]) was 50 to 100% throughout.

Regarding `Cc1ccc(COCC(F)F)c(N2C(=O)CS/C2=N\C(=O)Nc2ccc(-c3noc(-c4ccc(OC(F)(F)F)cc4)n3)cc2F)c1` [Compound J771, (Z)-1-(3-(2-((2,2-Difluoroethoxy)methyl)-5-methylphenyl)-4-oxothiazolidin-2-ylidene)-3-(2-fluoro-4-(5-(4-(trifluoromethoxy)phenyl)-1,2,4-oxadiazol-3-yl)phenyl)urea], the pest or weed control at 50 µg/cm2 in test [1] (read-out: BAW rating) and in test [2] (read-out: CL rating) was 50 to 100% each time.

Regarding `CC(C)c1ccc(N(C)C)cc1N1C(=O)CS/C1=N\C(=O)Nc1ccc(-c2cn(-c3ccc(OC(F)(F)F)cc3)cn2)cc1` [Compound J529, (Z)-1-(3-(5-(Dimethylamino)-2-isopropylphenyl)-4-oxothiazolidin-2-ylidene)-3-(4-(1-(4-(trifluoromethoxy)phenyl)-1H-imidazol-4-yl)phenyl)urea], the pest or weed control at 50 µg/cm2 in test [1] (read-out: BAW rating) and in test [2] (read-out: CL rating) was 50 to 100% each time.

For `COCc1ccc(N(C)C)cc1N1C(=O)CS/C1=N\C(=O)Nc1ccc(-c2cn(-c3ccc(OC(F)(F)F)cc3)nn2)cc1` [Compound J496, (Z)-1-(3-(5-(Dimethylamino)-2-(methoxymethyl)phenyl)-4-oxothiazolidin-2-ylidene)-3-(4-(1-(4-(trifluoromethoxy)phenyl)-1H-1,2,3-triazol-4-yl)phenyl)urea], the pest or weed control at 50 µg/cm2 in test [1] (read-out: BAW rating) and in test [2] (read-out: CL rating) was 50 to 100% each time.

With `COCc1ccc(N(C)C)cc1N1C(=O)CS/C1=N\C(=O)Nc1ccc(-c2ncn(-c3ccc(S(=O)(=O)C(F)(F)F)cc3)n2)cc1F` [Compound J671, (Z)-1-(3-(5-(Dimethylamino)-2-(methoxymethyl)phenyl)-4-oxothiazolidin-2-ylidene)-3-(2-fluoro-4-(1-(4-((trifluoromethyl)sulfonyl)phenyl)-1H-1,2,4-triazol-3-yl)phenyl)urea], the pest or weed control at 50 µg/cm2 in test [1] (read-out: BAW rating) and in test [2] (read-out: CL rating) was 50 to 100% each time.

Consider `Cc1ccc(OCC(F)(F)F)c(N2C(=O)CS/C2=N\C(=O)Nc2ccc(-c3ncn(-c4ccc(OC(F)(F)F)cc4)n3)cc2F)c1` [Compound J31, (Z)-1-(2-Fluoro-4-(1-(4-(trifluoromethoxy)phenyl)-1H-1,2,4-triazol-3-yl)phenyl)-3-(3-(5-methyl-2-(2,2,2-trifluoroethoxy)phenyl)-4-oxothiazolidin-2-ylidene)urea], for which the pest or weed control at 50 µg/cm2 in test [1] (setting [3]) and in test [2] (setting [4]) was 50 to 100% in each case.

Regarding `Cc1ccc(COCc2ccccc2F)c(N2C(=O)CS/C2=N\C(=O)Nc2ccc(-c3ncn(-c4ccc(OC(F)(F)F)cc4)n3)cc2F)c1` [Compound J635, (Z)-1-(2-Fluoro-4-(1-(4-(trifluoromethoxy)phenyl)-1H-1,2,4-triazol-3-yl)phenyl)-3-(3-(2-(((2-fluorobenzyl)oxy)methyl)-5-methylphenyl)-4-oxothiazolidin-2-ylidene)urea], the pest or weed control at 50 µg/cm2 in test [1] (read-out: BAW rating) and in test [2] (read-out: CL rating) was 50 to 100% in each case.

As for `CCOC(C)c1ccc(C)cc1N1C(=O)CS/C1=N\C(=O)Nc1ccc(-c2ncn(-c3ccc(OC(F)(F)F)cc3)n2)cc1O` (stereo not drawn) [Compound J179, (Z)-1-(3-(2-(1-Ethoxyethyl)-5-methylphenyl)-4-oxothiazolidin-2-ylidene)-3-(2-hydroxy-4-(1-(4-(trifluoromethoxy)phenyl)-1H-1,2,4-triazol-3-yl)phenyl)urea], the pest or weed control at 50 µg/cm2 in test [1] (setting [3]) and in test [2] (setting [4]) was 50 to 100% throughout.

With `COc1ccc(C(C)C)c(N2C(=O)CS/C2=N\C(=O)Nc2ccc(-c3ncn(-c4ccc(OC(F)(F)F)cc4)n3)c(C)c2)c1` [Compound J22, (Z)-1-(3-(2-Isopropyl-5-methoxyphenyl)-4-oxothiazolidin-2-ylidene)-3-(3-methyl-4-(1-(4-(trifluoromethoxy)phenyl)-1H-1,2,4-triazol-3-yl)phenyl)urea], the pest or weed control at 50 µg/cm2 in test [1] (setting [3]) and in test [2] (setting [4]) was 50 to 100% each time.

For the molecule `CCOC(C)c1ccc(C)cc1N1C(=O)CS/C1=N\C(=O)Nc1ccc(-c2cn(-c3ccc(S(F)(F)(F)(F)F)cc3)cn2)cc1F` (stereo not drawn) [Compound J594, (Z)-1-(3-(2-(1-Ethoxyethyl)-5-methylphenyl)-4-oxothiazolidin-2-ylidene)-3-(2-fluoro-4-(1-(4-(pentafluoro-λ^6-sulfaneyl)phenyl)-1H-imidazol-4-yl)phenyl)urea], the pest or weed control at 50 µg/cm2 in test [1] (read-out: BAW rating) and in test [2] (read-out: CL rating) was 50 to 100% in each case.

For the molecule `CCCCc1ccc(C)cc1N1C(=O)CS/C1=N\C(=O)Nc1ccc(-c2ncn(-c3ccc(OC(F)(F)F)cc3)n2)cc1F` [Compound J44, (Z)-1-(3-(2-Butyl-5-methylphenyl)-4-oxothiazolidin-2-ylidene)-3-(2-fluoro-4-(1-(4-(trifluoromethoxy)phenyl)-1H-1,2,4-triazol-3-yl)phenyl)urea], the pest or weed control at 50 µg/cm2 in test [1] (setting [3]) and in test [2] (setting [4]) was 50 to 100% each time.

As for `CN(C)c1ccc(C(F)(F)F)c(N2C(=O)CS/C2=N\C(=O)Nc2ccc(-c3cn(-c4ccc(S(F)(F)(F)(F)F)cc4)cn3)cc2F)c1` [Compound J600, (Z)-1-(3-(5-(Dimethylamino)-2-(trifluoromethyl)phenyl)-4-oxothiazolidin-2-ylidene)-3-(2-fluoro-4-(1-(4-(pentafluoro-λ^6-sulfaneyl)phenyl)-1H-imidazol-4-yl)phenyl)urea], the pest or weed control at 50 µg/cm2 in test [1] (read-out: BAW rating) and in test [2] (read-out: CL rating) was 50 to 100% throughout.

Turning to `COC(C)c1ccc(C)cc1N1C(=O)CS/C1=N\C(=O)Nc1ccc(-c2ncn(-c3ccc(C(F)(F)F)cn3)n2)cc1C` (stereo not drawn) [Compound J286, (Z)-1-(3-(2-(1-Methoxyethyl)-5-methylphenyl)-4-oxothiazolidin-2-ylidene)-3-(2-methyl-4-(1-(5-(trifluoromethyl)pyridin-2-yl)-1H-1,2,4-triazol-3-yl)phenyl)urea], the pest or weed control at 50 µg/cm2 in test [1] (setting [3]) and in test [2] (setting [4]) was 50 to 100% throughout.

Regarding `Cc1ccc(COCC(Cl)Cl)c(N2C(=O)CS/C2=N\C(=O)Nc2ccc(-c3ncn(-c4ccc(S(F)(F)(F)(F)F)cc4)n3)cc2C)c1` [Compound J556], the BAW rating result in test [1] is listed as “A (50-100)”. Besides, the CL rating result in test [2] is recorded as “A (50-100)”.

With `Cc1ccc(COCC(F)(F)F)c(N2C(=O)CS/C2=N\C(=O)Nc2ccc(-c3ncn(-c4ccccc4)n3)cc2C)c1` [Compound J780], the BAW rating entry in test [1] was “A (50-100)”. Moreover, the CL rating entry in test [2] was “A (50-100)”.
